Experimental data reported in ChEMBL document CHEMBL1151754, “Structural and mechanistic studies of mofegiline inhibition of recombinant human monoamine oxidase B” (J Med Chem, 2008).
pIC50, pKi: −log10 of the molar value.

Assays:
[1] = target: T1, Amine oxidase [flavin-containing] A (Homo sapiens, UniProt P21397); assay: Inhibition of human MAOA
T1 sequence (P21397 whole entry): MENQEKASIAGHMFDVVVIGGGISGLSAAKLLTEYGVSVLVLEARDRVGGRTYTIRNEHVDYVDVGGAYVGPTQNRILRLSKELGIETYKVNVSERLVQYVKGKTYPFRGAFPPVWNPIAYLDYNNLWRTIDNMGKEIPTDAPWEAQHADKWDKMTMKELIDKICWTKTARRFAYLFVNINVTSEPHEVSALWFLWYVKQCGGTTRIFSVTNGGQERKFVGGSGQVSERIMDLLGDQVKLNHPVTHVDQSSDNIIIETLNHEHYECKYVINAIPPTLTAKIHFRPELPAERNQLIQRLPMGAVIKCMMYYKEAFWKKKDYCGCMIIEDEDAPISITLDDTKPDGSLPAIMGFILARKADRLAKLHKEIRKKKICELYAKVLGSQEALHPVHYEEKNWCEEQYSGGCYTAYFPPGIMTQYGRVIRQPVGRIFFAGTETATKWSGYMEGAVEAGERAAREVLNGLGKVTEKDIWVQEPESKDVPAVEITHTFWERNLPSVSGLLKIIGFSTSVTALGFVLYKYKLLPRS

[2] = target: T2, Amine oxidase [flavin-containing] B (Homo sapiens, UniProt P27338); assay: Inhibition of reduced human recombinant MAOB expressed in Pichia pastoris assessed as increase in absorbance of reduced enzyme; parameters: scale not given: the % may be the effect or the level left
T2 sequence (P27338 whole entry): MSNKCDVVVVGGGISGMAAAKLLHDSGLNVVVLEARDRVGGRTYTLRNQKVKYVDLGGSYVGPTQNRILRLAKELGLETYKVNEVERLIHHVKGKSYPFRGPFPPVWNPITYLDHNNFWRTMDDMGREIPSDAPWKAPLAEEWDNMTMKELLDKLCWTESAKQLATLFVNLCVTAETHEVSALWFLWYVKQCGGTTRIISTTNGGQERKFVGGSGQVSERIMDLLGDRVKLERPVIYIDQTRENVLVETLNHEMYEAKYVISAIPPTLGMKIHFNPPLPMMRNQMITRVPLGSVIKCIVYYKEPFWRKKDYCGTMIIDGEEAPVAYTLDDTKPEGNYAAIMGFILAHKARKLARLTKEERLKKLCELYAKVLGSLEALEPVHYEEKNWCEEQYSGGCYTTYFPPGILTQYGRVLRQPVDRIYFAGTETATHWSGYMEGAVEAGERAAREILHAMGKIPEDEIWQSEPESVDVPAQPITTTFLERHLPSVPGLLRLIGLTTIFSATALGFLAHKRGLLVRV

[3] = target: T1, Amine oxidase [flavin-containing] A; assay: Inhibition of human recombinant MAOA expressed in Pichia pastoris by kinetic assay
[4] = target: T2, Amine oxidase [flavin-containing] B; assay: Inhibition of human recombinant MAOB expressed in Pichia pastoris by kinetic assay
[5] = target: T1, Amine oxidase [flavin-containing] A; assay: Inhibition of oxidized human recombinant MAOA expressed in Pichia pastoris under anaerobic assay condition
[6] = target: T2, Amine oxidase [flavin-containing] B; assay: Inhibition of human recombinant MAOB expressed in Pichia pastoris assessed as fluoride ion release by ion-selective electrode experiment
[7] = target: T2, Amine oxidase [flavin-containing] B; assay: Inhibition of oxidized human recombinant MAOB expressed in Pichia pastoris under anaerobic assay condition
[8] = target: T2, Amine oxidase [flavin-containing] B; assay: Inhibition of human recombinant MAOB expressed in Pichia pastoris assessed as effect on flavin absorbance shift by spectroscopy
[9] = target: T2, Amine oxidase [flavin-containing] B; assay: Inhibition of human recombinant MAOB expressed in Pichia pastoris assessed as formation of intense negative dichroic band at […] by CD spectroscopy
[10] = target: T3, Amine oxidase [flavin-containing] B (Rattus norvegicus, UniProt P19643); assay: Inhibition of rat membrane MAOB
T3 sequence (P19643 whole entry): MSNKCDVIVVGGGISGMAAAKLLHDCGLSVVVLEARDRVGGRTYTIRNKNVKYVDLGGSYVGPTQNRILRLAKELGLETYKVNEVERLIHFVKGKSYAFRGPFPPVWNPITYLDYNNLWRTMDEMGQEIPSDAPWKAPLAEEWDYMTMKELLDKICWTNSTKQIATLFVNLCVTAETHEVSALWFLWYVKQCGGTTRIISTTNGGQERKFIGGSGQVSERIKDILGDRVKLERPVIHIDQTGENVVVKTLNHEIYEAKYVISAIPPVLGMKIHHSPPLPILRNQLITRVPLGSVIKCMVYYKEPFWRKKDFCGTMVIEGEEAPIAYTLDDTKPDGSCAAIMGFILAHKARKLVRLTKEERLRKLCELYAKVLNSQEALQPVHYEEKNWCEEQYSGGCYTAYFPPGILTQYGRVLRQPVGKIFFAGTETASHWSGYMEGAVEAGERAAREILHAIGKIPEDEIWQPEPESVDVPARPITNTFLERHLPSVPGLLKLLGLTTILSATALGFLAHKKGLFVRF

[11] = target: T2, Amine oxidase [flavin-containing] B; assay: Inhibition of human recombinant MAOB expressed in Pichia pastoris at stoichiometric level of 1 mol/mol of E-FAD

Row | pKi [1] | Activity [2] | pKi [3] | pKi [4] | Activity [5] | Activity [6] | Activity [7] | Activity [8] | Activity [9] | pIC50 [10] | Activity [11] | SMILES
1 | 4.51 | – | – | – | – | – | – | – | – | – | – | NCCCCc1ccccc1 [4-PHENYL-BUTYLAMINE]
2 | – | 50% | 5.96 | 7.55 | Not Active | Active | Active | Active | Active | 8.44 | Active | NC/C(=C/F)CCc1ccc(F)cc1 [MOFEGILINE]
